Source: US7141660B2, “Genes encoding a nystatin polyketide synthase and their manipulation and utility” (Sinvent AS, priority 2000, dated 2006)

Test system: Candida albicans
Experiment: bioassay for antifungal activity against Candida albicans
Assay type: cell-based
Settings: for Activity: Table 5, products of S. noursei nysC mutants, graded against nystatin of wild type (normal)
Experimental: Preliminary analysis of the compounds produced by the S. noursei ERD44 and ERD48 was carried out. It was shown that a heptaenic compound produced by the ERD44 mutant has high antifungal activity against Candida albicans, an organism used in tests for antifungal activity. At this point it is not possible to accurately assay the activity of this compound (tentatively named S44), because it is not yet properly purified, and its exact concentration is difficult to estimate. […] This probably reflects the different states of modifications of the macrolactone ring by i.e. glycosylation at C19, hydroxylation at C10, or oxidation of the methyl group at C16. This could have been expected, since reduction of the macrolactone ring size most probably leads to the lower affinity of the modifying enzymes towards the new substrate.
Antifungal activity of the S48 mixture was tested, and found to constitute approx. 10% of nystatin activity. It seems probable that only one of the compounds in the S48 mixture produced by ERD48, which is fully decorated by the ring-modifying enzymes, is responsible for the antifungal activity detected. Thus, relative antifungal activity of this compound is impossible to assess prior to its purification Some of the […] antibiotics are known to have antibacterial, as well as antifungal activity (Ciftci, et al., J. Antibiot, v. 37: 876–884, 1984). It is thus possible that hexaenic compounds produced by the ERD48 mutant can be used for production of antibacterial agents The changes in the NysC protein leading to production of new polyene compounds in ERD44 and ERD48 mutants, along with the predicted structures of their macrolactone rings are presented in FIG. 5.
The recombinant S.noursei strain selected after this procedure was designated NPR1.1 The S. noursei NPR1.1 recombinant strain was shown by Southern blot analysis to contain the desired deletion in the DH8-coding sequence of nysC. […] The relative mobility of these compounds differed from nystatin, and no UV spectra characteristic for nystatin could be detected in the extracts. […] However, the NPR1 mutant can be potentially useful for further manipulations with the nystatin PKS.

Row | Structure (SMILES) | Activity | antifungal activity against Candida albicans (result in words, unpurified compound or culture extracts) | antifungal activity compared to nystatin (rough estimates based on UV absorbance, compound not properly purified, concentration difficult to estimate)
1 | CC1/C=C/C=C/C=C/C=C/C=C/C=C/C=C/C(O)CC2OC(O)(CC(O)CCCC(O)CC(O)CC(O)CC(=O)OC(C)[C@H](C)C1O)CC(O)C2C (stereo partly shown) [S44] | high | high | 4–5 times
2 | C[C@@H]1[C@H](O)[C@@H](C)/C=C/C=C/CC/C=C/C=C/C=C/C=C/C(O[C@H]2O[C@H](C)[C@@H](O)[C@H](N)[C@@H]2O)CC2O[C@](O)(CC(O)C(O)CCC(O)CC(O)CC(O)CC(=O)O[C@H]1C)CC(O)C2C(=O)O (stereo partly shown) [nystatin] | normal | – | –
